Earlier results, collected in publication PMC8342870 (International Journal of Biological Macromolecules, 2021).

Biological target: SARS-CoV-2 PLpro (Severe acute respiratory syndrome coronavirus 2, UniProt P0DTD1)
Details: previous work ref 29

For `CN1C[C@H](C(=O)N[C@]2(C)O[C@@]3(O)[C@@H]4CCCN4C(=O)[C@H](Cc4ccccc4)N3C2=O)C=C2c3cccc4[nH]cc(c34)C[C@H]21` [ergotamine], the “reported rigid docking score” value is given as -9.2 kcal/mol.
